target: human FP receptor (Homo sapiens (Human), UniProt P43088); assay: In vitro test of inhibition of human FP receptor activity (PGF2α-induced calcium flux in FP-expressing CHEM1 cells); assay type: cell-based; conditions: PGF2α-induced (3 nM) calcium flux, some as mean values from multiple independent determinations
Description: • CRTH2 chemoattractant receptor-homologous molecule expressed on T helper type 2 cells • DMEM Dulbecco's modified Eagle's medium • DMSO dimethyl sulfoxide • DP PGD2 receptor • EC50 half-maximum effective concentration • Em emission • EP PGE2 receptor • Ex excitation • from Company (source) • FCS fetal calf serum • FP PGF2α receptor • HEPES 2-[4-(2-hydroxyethyl)piperazin-1-yl]ethanesulfonic acid • IC50 half-maximum inhibitory concentration • IP PGI2 receptor • MES 2-(N-morpholino)ethanesulfonic acid • Pen/Strep penicillin/streptomycin • PGD2 prostaglandin D2 • PGE2 prostaglandin E2 • PGF2α prostaglandin F2α • PGI2 prostaglandin I2 • TC tissue culture • TP thromboxane A2 receptor • Tris tris(hydroxymethyl)aminomethane • v/v volume to volume ratio (of a solution) • w/w weight to weight ratio (of a solution) B-1. In Vitro Test of Inhibition of Human FP Receptor Activity
For the characterization of test substances in respect of FP antagonism, PGF2α-induced calcium flux in FP-expressing CHEM1 cells (Millipore, HTS093C) was used.
Prior to the measurement, the medium is replaced by 30 μl of Fluo-8 AM loading buffer [calcium-free Tyrode (130 mM NaCl, 5 mM KCl, 20 mM HEPES, 1 mM MgCl2, 4.8 mM NaHCO3, pH 7.4), 2 mM CaCl2, 1× SmartBlock (from CANDOR Bioscience GmbH), 4.5 mM Probenecid, 5 μM Fluo-8 AM, 0.016% Pluronic®, 0.04% Brilliant black] and incubated at 37° C./5% CO2 for 30 minutes. […] 10 μl of the prediluted substance solution are added to the Fluo-8-laden cells and incubated at 37° C./5% CO2 for 10 minutes. The FP receptor is activated by adding 20 μl of 3 nM (final concentration) PGF2α in calcium-free Tyrode/2 mM CaCl2/0.04% Brilliant black, and the calcium flux is determined by measuring the fluorescence at ex. 470 nm/[…].
Table 1 below lists the IC50 values from this assay for individual working examples of the invention (some as mean values from multiple independent individual determinations): […]

human FP receptor, sequence (P43088 whole entry): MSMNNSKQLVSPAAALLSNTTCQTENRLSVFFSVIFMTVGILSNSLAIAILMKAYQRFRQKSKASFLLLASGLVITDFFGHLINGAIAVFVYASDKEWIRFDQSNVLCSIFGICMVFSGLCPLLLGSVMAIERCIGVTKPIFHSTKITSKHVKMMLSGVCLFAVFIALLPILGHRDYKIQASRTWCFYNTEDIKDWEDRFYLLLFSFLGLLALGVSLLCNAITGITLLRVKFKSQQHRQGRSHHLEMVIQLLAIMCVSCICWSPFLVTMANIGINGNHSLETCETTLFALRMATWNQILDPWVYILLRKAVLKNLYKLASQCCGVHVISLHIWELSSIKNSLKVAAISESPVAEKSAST

Point of comparison: C=Cc1c(-c2ccccc2)nc2ccc(Br)cc2c1C(=O)NC12CCC(C(=O)O)(CC1)CC2 [Example 67, 4-{[(6-Bromo-2-phenyl-3-vinylquinolin-4-yl)carbonyl]amino}bicyclo[2.2.2]octane-1-carboxylic acid], IC50 440 nM. Against it:
- Cc1c(-c2ccccc2)nc2ccc(Br)cc2c1C(=O)NC12CCC(C(N)=O)(CC1)CC2 [Example 36, 6-Bromo-N-(4-carbamoylbicyclo[2.2.2]oct-1-yl)-3-methyl-2-phenylquinoline-4-carboxamide] — within 1.5-fold, 553 nM
- Cc1c(-c2cccc(Cl)c2)nc2ccc(Br)cc2c1C(=O)NC12CCC(C(=O)O)(CC1)CC2 [Example 11, 4-({[6-Bromo-2-(3-chlorophenyl)-3-methylquinolin-4-yl]carbonyl}amino)bicyclo[2.2.2]octane-1-carboxylic acid] — 3.4-fold lower, 129 nM
- Cc1c(-c2ccccc2)nc2ccc(C3CCC3)cc2c1C(=O)NC12CCC(C(=O)O)(CC1)CC2 [Example 16, 4-{[(6-Cyclobutyl-3-methyl-2-phenylquinolin-4-yl)carbonyl]amino}bicyclo [2.2.2]octane-1-carboxylic acid] — within 1.5-fold, 589 nM
- O=C(NC12CCC(C(=O)O)(CC1)CC2)c1c(Cl)c(-c2ccccc2)nc2ccc(I)cc12 [Example 32, 4-{[(3-Chloro-6-iodo-2-phenylquinolin-4-yl)carbonyl]amino}bicyclo[2.2.2]octane-1-carboxylic acid] — 20-fold lower, 22 nM
- O=C(NC12CCC(C(=O)O)(CC1)CC2)c1c(O)c(-c2ccccc2)nc2ccc(Br)cc12 [Example 35, 4-{[(6-Bromo-3-hydroxy-2-phenylquinolin-4-yl)carbonyl]amino}bicyclo[2.2.2]octane-1-carboxylic acid] — within 1.5-fold, 430 nM
- Cc1c(-c2cc(F)cc(F)c2)nc2ccc(Br)cc2c1C(=O)NC12CCC(C(=O)O)(CC1)CC2 [Example 9, 4-({[6-Bromo-2-(3,5-difluorophenyl)-3-methylquinolin-4-yl]carbonyl}amino)bicyclo[2.2.2]octane-1-carboxylic acid] — within 1.5-fold, 386 nM
- Cc1c(-c2ccccc2)nc2ccc(Br)cc2c1C(=O)NC12CCC(C(=O)O)(CC1)C(O)C2 (racemic) [Example 59, 4-{[(6-Bromo-3-methyl-2-phenylquinolin-4-yl)carbonyl]amino}-2-hydroxybicyclo[2.2.2]octane-1-carboxylic acid (racemate)] — within 1.5-fold, 435 nM
- Cc1ccc(-c2nc3ccc(Br)cc3c(C(=O)NC34CCC(C(=O)O)(CC3)CC4)c2C)s1 [Example 53, 4-({[6-Bromo-3-methyl-2-(5-methyl-2-thienyl)quinolin-4-yl]carbonyl}amino)bicyclo[2.2.2]octane-1-carboxylic acid] — 1.9-fold lower, 235 nM
- CCc1c(-c2ccccc2)nc2ccc(Br)cc2c1C(=O)NC12CCC(C(=O)O)(CC1)CC2 [Example 28, 4-{[(6-Bromo-3-ethyl-2-phenylquinolin-4-yl)carbonyl]amino}bicyclo[2.2.2]octane-1-carboxylic acid] — 2-fold lower, 220 nM
- Cc1c(-c2ccccc2)nc2ccc(I)cc2c1C(=O)NC12CCC(C(=O)O)(CC1)CC2 [Example 14, 4-{[(6-Iodo-3-methyl-2-phenylquinolin-4-yl)carbonyl]amino}bicyclo[2.2.2]octane-1-carboxylic acid] — 13-fold lower, 33 nM
- Cc1c(-c2ccccc2)nc2ccc(C3CC3)cc2c1C(=O)NC12CCC(C(=O)O)(CC1)CC2 [Example 15, 4-{[(6-Cyclopropyl-3-methyl-2-phenylquinolin-4-yl)carbonyl]amino}bicyclo[2.2.2]octane-1-carboxylic acid] — within 1.5-fold, 326 nM
- Cc1c(-c2ccccc2)nc2ccc(SC(F)(F)F)cc2c1C(=O)NC12CCC(C(=O)O)(CC1)CC2 [Example 20, 4-[({3-Methyl-2-phenyl-6-[(trifluoromethyl)sulfanyl]quinolin-4-yl}carbonyl)amino]bicyclo[2.2.2]octane-1-carboxylic acid] — within 1.5-fold, 521 nM
- N#Cc1c(-c2ccccc2)nc2ccc(Br)cc2c1C(=O)NC12CCC(C(=O)O)(CC1)CC2 [Example 66, 4-{[(6-Bromo-3-cyano-2-phenylquinolin-4-yl)carbonyl]amino}bicyclo[2.2.2]octane-1-carboxylic acid] — 1.7-fold higher, 762 nM
- Cc1c(-c2cc(Br)cs2)nc2ccc(Br)cc2c1C(=O)NC12CCC(C(=O)O)(CC1)CC2 [Example 52, 4-({[6-Bromo-2-(4-bromo-2-thienyl)-3-methylquinolin-4-yl]carbonyl}amino)bicyclo[2.2.2]octane-1-carboxylic acid] — 7.6-fold lower, 58 nM
- Cc1ccccc1-c1nc2ccc(Br)cc2c(C(=O)NC23CCC(C(=O)O)(CC2)CC3)c1C [Example 24, 4-({[6-Bromo-3-methyl-2-(2-methylphenyl)quinolin-4-yl]carbonyl}amino)bicyclo[2.2.2]octane-1-carboxylic acid] — 3.4-fold lower, 129 nM
- O=C(NC12CCC(C(=O)O)(CC1)CC2)c1c(C2CC2)c(-c2ccccc2)nc2ccc(I)cc12 [Example 33, 4-{[(3-Cyclopropyl-6-iodo-2-phenylquinolin-4-yl)carbonyl]amino}bicyclo[2.2.2]octane-1-carboxylic acid] — 8.6-fold lower, 51 nM
- Cc1c(-c2ccccc2)nc2ccc(Br)cc2c1C(=O)NC12CC(C(=O)O)(C1)C2 [Example 37, 3-{[(6-Bromo-3-methyl-2-phenylquinolin-4-yl)carbonyl]amino}bicyclo[1.1.1]pentane-1-carboxylic acid] — 1.6-fold higher, 723 nM
- Cc1c(-c2ccccc2)nc2ccc(I)cc2c1C(=O)NC12CCC(C(=O)O)(CC1)C2 [Example 38, 4-{[(6-Iodo-3-methyl-2-phenylquinolin-4-yl)carbonyl]amino}bicyclo [2.2.1]heptane-1-carboxylic acid] — 2.9-fold higher, 1280 nM
- Cc1c(-c2ccc(F)cc2)nc2ccc(Br)cc2c1C(=O)NC12CCC(C(=O)O)(CC1)CC2 [Example 8, 4-({[6-Bromo-2-(4-fluorophenyl)-3-methylquinolin-4-yl]carbonyl}amino)bicyclo[2.2.2]octane-1-carboxylic acid] — 2.4-fold lower, 180 nM
- Cc1c(-c2ccccc2)nc2ccc(Cl)cc2c1C(=O)NC12CCC(C(=O)O)(CC1)CC2 [Example 2, 4-{[(6-Chloro-3-methyl-2-phenylquinolin-4-yl)carbonyl]amino}bicyclo[2.2.2]octane-1-carboxylic acid] — 1.7-fold lower, 259 nM
- Cc1c(-c2ccccc2)nc2ccc([Si](C)(C)C)cc2c1C(=O)NC12CCC(C(=O)O)(CC1)CC2 [Example 17, 4-({[3-Methyl-2-phenyl-6-(trimethylsilyl)quinolin-4-yl]carbonyl}amino)bicyclo[2.2.2]octane-1-carboxylic acid] — 2.1-fold lower, 214 nM
- Cc1c(-c2ccccc2)nc2ccc(Br)cc2c1C(=O)NC12C3C4C1C1C2C3C41C(=O)O (stereo not drawn) [Example 43, 4-{[(6-Bromo-3-methyl-2-phenylquinolin-4-yl)carbonyl]amino}cubane-1-carboxylic acid] — 2.2-fold lower, 198 nM
- Cc1c(-c2ccccc2)nc2cc(Cl)c(Cl)cc2c1C(=O)NC12CCC(C(=O)O)(CC1)CC2 [Example 3, 4-{[(6,7-Dichloro-3-methyl-2-phenylquinolin-4-yl)carbonyl]amino}bicyclo[2.2.2]octane-1-carboxylic acid] — 3.1-fold lower, 142 nM
- O=C(NC12CCCC(C(=O)O)(CC1)CC2)c1c(Cl)c(-c2ccccc2)nc2ccc(Br)cc12 [Example 40, 5-{[(6-Bromo-3-chloro-2-phenylquinolin-4-yl)carbonyl]amino}bicyclo[3.2.2]nonane-1-carboxylic acid] — 2.3-fold lower, 195 nM
- Cc1c(-c2ccccc2)nc2ccc(OC(F)(F)F)cc2c1C(=O)NC12CCC(C(=O)O)(CC1)CC2 [Example 19, 4-({[3-Methyl-2-phenyl-6-(trifluoromethoxy)quinolin-4-yl]carbonyl}amino)bicyclo[2.2.2]octane-1-carboxylic acid] — 2.1-fold higher, 917 nM
- Cc1c(-c2ccccc2)nc2ccc(C(F)(F)F)cc2c1C(=O)NC12CCC(C(=O)O)(CC1)CC2 [Example 34, 4-({[3-Methyl-2-phenyl-6-(trifluoromethyl)quinolin-4-yl]carbonyl}amino)bicyclo[2.2.2]octane-1-carboxylic acid] — within 1.5-fold, 505 nM
- Cc1c(-c2ccc(Br)s2)nc2ccc(Br)cc2c1C(=O)NC12CCC(C(=O)O)(CC1)CC2 [Example 55, 4-({[6-Bromo-2-(5-bromo-2-thienyl)-3-methylquinolin-4-yl]carbonyl}amino)bicyclo[2.2.2]octane-1-carboxylic acid] — within 1.5-fold, 383 nM
- O=C(NC12C3C4C1C1C2C3C41C(=O)O)c1c(Cl)c(-c2ccccc2)nc2ccc(Br)cc12 (stereo not drawn) [Example 45, 4-{[(6-Bromo-3-chloro-2-phenylquinolin-4-yl)carbonyl]amino}cubane-1-carboxylic acid] — 2.7-fold lower, 161 nM
- Cc1c(-c2ccccc2)nc2ccc(I)cc2c1C(=O)NC12C3C4C1C1C2C3C41C(=O)O (stereo not drawn) [Example 44, 4-{[(6-Iodo-3-methyl-2-phenylquinolin-4-yl)carbonyl]amino}cubane-1-carboxylic acid] — 6-fold lower, 73 nM

Source: patent publication US10117864B2, “Substituted N-bicyclo-2-aryl-quinolin-4-carboxamides and use thereof” (BAYER PHARMA AKTIENGESELLSCHAFT, priority 2015, dated 2018)
